Test results from the CombiSolv-Exp solvation set (Vermeire and Green 2021).
Values belong to the molecule of their own block, whether it stands above or below them.

Test: solvent given as SMILES
[1] = in CC(C)CCCC(C)CCCC(C)CCCCC(C)CCCC(C)CCCC(C)C

solvation free energy, 298 K [1]: -5.78 kcal/mol | solvation free energy, 298 K (in CCCCCC): -5.84 kcal/mol | solvation free energy, 298 K (in CCCCCCCCCCCCCCCC): -5.73 kcal/mol
SMILES: Cc1cccc(O)c1

solvation free energy, 298 K (in O): -11.6 kcal/mol
SMILES: CN(C)CCC(c1ccc(Br)cc1)c1ccccn1 (stereo not given)

solvation free energy, 298 K (in O): -4.56 kcal/mol
SMILES: O=C(CC(=O)C(F)(F)F)C(F)(F)F

SMILES: c1ccc2c(c1)Sc1ccccc1S2
solvation free energy, 298 K (in C1COCCO1): -12.8 kcal/mol | solvation free energy, 298 K (in CC(C)CC(C)(C)C): -11.1 kcal/mol | solvation free energy, 298 K (in CC(C)CCO): -11.3 kcal/mol | solvation free energy, 298 K (in CC(C)CO): -11.1 kcal/mol | solvation free energy, 298 K (in CC(C)O): -11 kcal/mol | solvation free energy, 298 K (in CC(C)OC(C)C): -11.7 kcal/mol | solvation free energy, 298 K (in CCC(C)O): -11.2 kcal/mol | solvation free energy, 298 K (in CCCCC(CC)CO): -11.4 kcal/mol | solvation free energy, 298 K (in CCCCCC): -11.4 kcal/mol | solvation free energy, 298 K (in CCCCCCC): -11.3 kcal/mol | solvation free energy, 298 K (in CCCCCCCC): -11.4 kcal/mol | solvation free energy, 298 K (in CCCCCCCCCC): -11.3 kcal/mol | solvation free energy, 298 K (in CCCCCCCCCCO): -11.6 kcal/mol | solvation free energy, 298 K (in CCCCCCCCO): -11.6 kcal/mol | solvation free energy, 298 K (in CCCCCCCO): -11.6 kcal/mol | solvation free energy, 298 K (in CCCCCCO): -11.5 kcal/mol | solvation free energy, 298 K (in CCCCCO): -11.5 kcal/mol | solvation free energy, 298 K (in CCCCO): -11.4 kcal/mol | solvation free energy, 298 K (in CCCO): -11.3 kcal/mol | solvation free energy, 298 K (in CCOCC): -12.1 kcal/mol | solvation free energy, 298 K (in CO): -10.9 kcal/mol | solvation free energy, 298 K (in COC(C)(C)C): -12.1 kcal/mol

SMILES: CCOCCO
solvation free energy, 298 K (in CCCCCC): -4.01 kcal/mol | solvation free energy, 298 K (in CCCCCCC): -3.85 kcal/mol | solvation free energy, 298 K (in COC(C)=O): -5.89 kcal/mol | solvation free energy, 298 K (in ClC(Cl)(Cl)Cl): -4.87 kcal/mol | solvation free energy, 298 K (in ClCCl): -6.06 kcal/mol | solvation free energy, 298 K (in O): -6.7 kcal/mol

SMILES: CCN(C)N=O
solvation free energy, 298 K (in CC(C)CC(C)(C)C): -4.43 kcal/mol | solvation free energy, 298 K (in O): -5.73 kcal/mol

SMILES: CC=CC=O
solvation free energy, 298 K (in O=CN1CCOCC1): -4.69 kcal/mol

solvation free energy, 298 K (in C1CCCCC1): -4.89 kcal/mol | solvation free energy, 298 K (in CC(C)O): -5.03 kcal/mol | solvation free energy, 298 K (in CCC(C)O): -5.05 kcal/mol | solvation free energy, 298 K (in CCCO): -5.03 kcal/mol | solvation free energy, 298 K (in CCO): -5.43 kcal/mol | solvation free energy, 298 K (in O): -4.84 kcal/mol
SMILES: CC(=O)CC(C)=O

SMILES: CCI
solvation free energy, 298 K (in Brc1cccc2ccccc12): -3.97 kcal/mol | solvation free energy, 298 K (in Brc1ccccc1): -4.23 kcal/mol | solvation free energy, 298 K (in C1CCOC1): -4.45 kcal/mol | solvation free energy, 298 K (in C1COCCO1): -4.21 kcal/mol | solvation free energy, 298 K (in C=CCCCCCCCCCCCCCC): -3.53 kcal/mol | solvation free energy, 298 K (in CC1COC(=O)O1): -3.71 kcal/mol | solvation free energy, 298 K (in CC#N): -3.81 kcal/mol | solvation free energy, 298 K (in CC(=O)N(C)C): -3.97 kcal/mol | solvation free energy, 298 K (in CC(=O)OCc1ccccc1): -3.91 kcal/mol | solvation free energy, 298 K (in CC(=O)c1ccccc1): -4.05 kcal/mol | solvation free energy, 298 K (in CC(C)(C)O): -3.48 kcal/mol | solvation free energy, 298 K (in CC(C)=O): -4 kcal/mol | solvation free energy, 298 K (in CC(C)CC(C)(C)C): -3.61 kcal/mol | solvation free energy, 298 K (in CC(C)CCO): -3.75 kcal/mol | solvation free energy, 298 K (in CC(C)O): -3.56 kcal/mol | solvation free energy, 298 K (in CCC#N): -3.94 kcal/mol | solvation free energy, 298 K (in CCC(C)=O): -4.1 kcal/mol | solvation free energy, 298 K (in CCCBr): -4.31 kcal/mol | solvation free energy, 298 K (in CCCCCC): -3.73 kcal/mol | solvation free energy, 298 K (in CCCCCCC): -3.68 kcal/mol | solvation free energy, 298 K (in CCCCCCCC): -3.66 kcal/mol | solvation free energy, 298 K (in CCCCCCCCO): -3.53 kcal/mol | solvation free energy, 298 K (in CCCCCl): -4.15 kcal/mol | solvation free energy, 298 K (in CCCCO): -3.63 kcal/mol | solvation free energy, 298 K (in CCCO): -3.55 kcal/mol | solvation free energy, 298 K (in CCO): -3.57 kcal/mol | solvation free energy, 298 K (in CCOC(=O)c1ccccc1): -3.99 kcal/mol | solvation free energy, 298 K (in CCOC(C)=O): -4.04 kcal/mol | solvation free energy, 298 K (in CCOCC): -3.78 kcal/mol | solvation free energy, 298 K (in CN(C)C=O): -3.83 kcal/mol | solvation free energy, 298 K (in CO): -3.58 kcal/mol | solvation free energy, 298 K (in CS(C)=O): -3.82 kcal/mol | solvation free energy, 298 K (in Cc1ccc(C)cc1): -4.14 kcal/mol | solvation free energy, 298 K (in Cc1ccccc1): -4.2 kcal/mol | solvation free energy, 298 K (in ClC1CCCCC1): -4.19 kcal/mol | solvation free energy, 298 K (in ClC(Cl)(Cl)Cl): -4.17 kcal/mol | solvation free energy, 298 K (in ClC(Cl)C(Cl)Cl): -4.41 kcal/mol | solvation free energy, 298 K (in ClC(Cl)Cl): -4.44 kcal/mol | solvation free energy, 298 K (in ClCCCl): -4.2 kcal/mol | solvation free energy, 298 K (in ClCCl): -4.12 kcal/mol | solvation free energy, 298 K (in Clc1ccccc1): -4.22 kcal/mol | solvation free energy, 298 K (in Ic1ccccc1): -4.29 kcal/mol | solvation free energy, 298 K (in N#Cc1ccccc1): -4 kcal/mol | solvation free energy, 298 K (in O): -0.74 kcal/mol | solvation free energy, 298 K (in O=C1CCCCC1): -4.18 kcal/mol | solvation free energy, 298 K (in c1ccc2ncccc2c1): -3.93 kcal/mol | solvation free energy, 298 K (in c1ccccc1): -4.32 kcal/mol

solvation free energy, 298 K (in O): -6.73 kcal/mol
SMILES: CC(C)CCCOC(=O)c1ccccc1C(=O)OCCCC(C)C

solvation free energy, 298 K (in C1COCCO1): -5.72 kcal/mol | solvation free energy, 298 K (in O): -7.17 kcal/mol
SMILES: C1COCCN1

solvation free energy, 298 K [1]: -3.52 kcal/mol | solvation free energy, 298 K (in CCCCCCCCCC): -3.79 kcal/mol | solvation free energy, 298 K (in CCCCCCCCCCCCCCCC): -3.55 kcal/mol | solvation free energy, 298 K (in CCCCCCCCO): -3.99 kcal/mol | solvation free energy, 298 K (in O): -2.59 kcal/mol | solvation free energy, 298 K (in [2H]O[2H]): -2.62 kcal/mol
SMILES: CC(=O)OC(C)C

solvation free energy, 298 K (in CCCCCCCCCCCCCCCC): -4.32 kcal/mol | solvation free energy, 298 K (in CCCCCCCCO): -4.71 kcal/mol | solvation free energy, 298 K (in O): -2.41 kcal/mol | solvation free energy, 298 K (in [2H]O[2H]): -2.47 kcal/mol
SMILES: CC(=O)OCC(C)C

solvation free energy, 298 K (in O): -11.5 kcal/mol
SMILES: Nc1ccc2c(c1)C(=O)c1ccccc1C2=O

solvation free energy, 298 K (in O): -9.34 kcal/mol
SMILES: CN(C)CCOC(c1ccccc1)c1ccccc1

solvation free energy, 298 K (in O): -9.63 kcal/mol
SMILES: c1c[nH]cn1

SMILES: Clc1cc(Cl)c(-c2ccccc2)c(Cl)c1
solvation free energy, 298 K (in O): -2.16 kcal/mol

solvation free energy, 298 K (in O): -6.49 kcal/mol
SMILES: CCCCCCCCCCOC(=O)c1ccccc1C(=O)OCCCCC

solvation free energy, 298 K (in CCCCCCCC): -4.84 kcal/mol | solvation free energy, 298 K (in CCCCCCCCCC): -4.78 kcal/mol
SMILES: CC(C)CCCO

SMILES: CCCCOC
solvation free energy, 298 K (in CCCCCl): -4.26 kcal/mol | solvation free energy, 298 K (in ClC(Cl)(Cl)Cl): -4.39 kcal/mol | solvation free energy, 298 K (in ClCCl): -4.71 kcal/mol

solvation free energy, 298 K (in O): 1.13 kcal/mol
SMILES: CC1CCC2(C(C)C)CC12 (stereo not given)

SMILES: CCCCCCCCBr
solvation free energy, 298 K (in O): 0.52 kcal/mol

SMILES: COc1ccc(C(c2ccc(OC)cc2)C(Cl)(Cl)Cl)cc1
solvation free energy, 298 K (in O): -6.93 kcal/mol

solvation free energy, 298 K (in O): -4.04 kcal/mol
SMILES: COC(OC)(OC)c1ccccc1

SMILES: BrCBr
solvation free energy, 298 K (in CCCCCCCCCCCCCCCC): -3.87 kcal/mol | solvation free energy, 298 K (in CCCCCCCCO): -4.19 kcal/mol | solvation free energy, 298 K (in O): -2.01 kcal/mol | solvation free energy, 298 K (in [2H]O[2H]): -2.03 kcal/mol
